Laboratory results reported in ChEMBL document CHEMBL6127149, “Novel Papain-Like Protease Inhibitors for Treating Viral Infections, in Particular Coronavirus Infections” (ACS Med Chem Lett, 2024).

Target: Replicase polyprotein 1ab (Severe acute respiratory syndrome coronavirus 2, UniProt P0DTD1)
Experiment: Inhibition of SARS-CoV-2 PLpro using Z-RLRGG-AMC as substrate preincubated for 30 mins followed by substrate addition and measured after 60 mins by SpectraMax microplate reader analysis

Structure (SMILES)	IC50 [nM]
CCOC(=O)[C@@H]1O[C@H]1C(=O)NNC(=O)CCc1ccccc1C(=O)N[C@H](N)c1cc(-c2cnn(C)c2)nc2ccccc12	2
Cn1cc(-c2cc([C@@H](N)NC(=O)c3ccccc3CCC(=O)NNC(=O)[C@H]3O[C@@H]3C(=O)O)c3ccccc3n2)cn1	1
CCOC(=O)[C@H]1O[C@@H]1C(=O)NNC(=O)CCc1ccccc1C(=O)N[C@H](N)c1cc(-c2cnn(C)c2)nc2ccccc12	2
COC(=O)[C@H]1O[C@@H]1C(=O)NNC(=O)CCc1ccccc1C(=O)N[C@H](N)c1cc(-c2cnn(C)c2)nc2ccccc12	2
